ChEMBL document CHEMBL5678818, “Discovery of potent SOS1 inhibitors that block RAS activation via disruption of the RAS-SOS1 interaction” (Proc Natl Acad Sci U S A, 2019)

Experiments:
[1] = test system: Receptor-type tyrosine-protein kinase FLT3 (Homo sapiens), P36888 [UNDEFINED MUTATION]; assay: Inhibition of FLT3 ITD/F691L mutant (unknown origin) assessed as residual activity at 1000 nM by KINOMEscan analysis relative to control
[2] = molecular target: T1, Serine/threonine-protein kinase BRSK2 (Homo sapiens) (UniProt Q8IWQ3); assay: Inhibition of BRSK2 (unknown origin) assessed as residual activity at 100 nM by KINOMEscan analysis relative to control
T1 sequence (whole entry): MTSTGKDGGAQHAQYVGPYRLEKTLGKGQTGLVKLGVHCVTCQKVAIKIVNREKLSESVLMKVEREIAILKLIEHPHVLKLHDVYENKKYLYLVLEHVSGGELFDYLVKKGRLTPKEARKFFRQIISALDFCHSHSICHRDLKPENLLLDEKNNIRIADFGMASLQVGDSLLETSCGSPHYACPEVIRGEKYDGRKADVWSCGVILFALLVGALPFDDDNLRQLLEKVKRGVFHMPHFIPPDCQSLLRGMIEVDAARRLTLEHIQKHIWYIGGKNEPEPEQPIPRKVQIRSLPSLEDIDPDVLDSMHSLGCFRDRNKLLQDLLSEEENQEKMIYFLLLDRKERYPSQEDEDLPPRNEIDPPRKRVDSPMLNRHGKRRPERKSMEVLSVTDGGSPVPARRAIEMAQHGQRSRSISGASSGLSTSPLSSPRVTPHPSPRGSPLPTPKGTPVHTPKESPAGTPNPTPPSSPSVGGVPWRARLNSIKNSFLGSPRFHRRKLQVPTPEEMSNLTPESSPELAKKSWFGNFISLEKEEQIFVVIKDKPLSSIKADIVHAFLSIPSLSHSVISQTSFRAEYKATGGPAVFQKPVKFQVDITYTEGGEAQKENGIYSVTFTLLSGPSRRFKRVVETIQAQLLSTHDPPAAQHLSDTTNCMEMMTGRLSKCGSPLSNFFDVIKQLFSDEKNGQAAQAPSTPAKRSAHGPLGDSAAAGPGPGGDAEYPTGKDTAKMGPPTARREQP

[3] = test system: Epidermal growth factor receptor (Homo sapiens), P00533 [G719S]; assay: Inhibition of EGFR G719S mutant (unknown origin) assessed as residual activity at 100 nM by KINOMEscan analysis relative to control
[4] = molecular target: T2, Serine/threonine-protein kinase Nek2 (Homo sapiens) (UniProt P51955); assay: Inhibition of NEK2 (unknown origin) assessed as residual activity at 100 nM by KINOMEscan analysis relative to control
T2 sequence (whole entry): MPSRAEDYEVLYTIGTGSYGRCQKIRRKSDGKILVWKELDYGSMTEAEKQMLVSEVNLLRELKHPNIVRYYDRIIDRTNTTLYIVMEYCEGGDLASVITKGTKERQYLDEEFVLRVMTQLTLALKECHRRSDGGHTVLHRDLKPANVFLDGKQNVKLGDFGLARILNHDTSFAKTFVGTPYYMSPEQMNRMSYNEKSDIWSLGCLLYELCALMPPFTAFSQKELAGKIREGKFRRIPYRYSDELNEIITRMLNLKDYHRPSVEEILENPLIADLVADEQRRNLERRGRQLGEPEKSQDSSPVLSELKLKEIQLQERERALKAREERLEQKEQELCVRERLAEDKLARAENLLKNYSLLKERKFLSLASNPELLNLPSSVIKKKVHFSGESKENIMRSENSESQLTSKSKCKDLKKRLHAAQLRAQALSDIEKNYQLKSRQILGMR

[5] = molecular target: T3, Mitogen-activated protein kinase kinase kinase 2 (Homo sapiens) (UniProt Q9Y2U5); assay: Inhibition of MAP3K2 (unknown origin) assessed as residual activity at 100 nM by KINOMEscan analysis relative to control
T3 sequence (whole entry): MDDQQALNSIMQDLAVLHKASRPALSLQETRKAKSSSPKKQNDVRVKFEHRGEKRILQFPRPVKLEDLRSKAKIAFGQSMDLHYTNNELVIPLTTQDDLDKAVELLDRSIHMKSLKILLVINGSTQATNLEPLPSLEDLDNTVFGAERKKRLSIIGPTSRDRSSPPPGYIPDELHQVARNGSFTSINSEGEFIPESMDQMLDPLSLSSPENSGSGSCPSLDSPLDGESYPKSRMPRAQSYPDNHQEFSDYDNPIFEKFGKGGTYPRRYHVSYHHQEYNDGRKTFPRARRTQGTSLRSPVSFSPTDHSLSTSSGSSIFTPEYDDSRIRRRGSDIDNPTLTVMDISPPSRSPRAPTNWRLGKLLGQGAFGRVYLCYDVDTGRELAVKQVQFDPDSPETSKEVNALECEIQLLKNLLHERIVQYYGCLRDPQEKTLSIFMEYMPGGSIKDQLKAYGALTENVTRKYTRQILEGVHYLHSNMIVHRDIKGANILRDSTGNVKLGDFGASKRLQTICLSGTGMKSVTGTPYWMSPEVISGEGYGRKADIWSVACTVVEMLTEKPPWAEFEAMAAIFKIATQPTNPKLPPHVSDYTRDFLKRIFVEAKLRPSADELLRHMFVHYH

GTPase KRas/RAF1 = GTPase KRas/RAF1 (Homo sapiens, UniProt P01116+P04049); assay: Inhibition of N-terminal His10-tagged wild-type recombinant human KRAS (1 to 169 residues) expressed in Escherichia coli/N-terminal GST-tagged recombinant human CRAF RBD (51 to 131 residues) expressed in Escherichia coli protein-protein interaction preincubated for 30 mins with KRAS followed by CRAF RBD addition measured after 60 mins in presence of anti-6His-XL665/GTP by HTRF analysis
[6] = test system: Proto-oncogene tyrosine-protein kinase receptor Ret (Homo sapiens), P07949 [M918T]; assay: Inhibition of RET M918T mutant (unknown origin) assessed as residual activity at 100 nM by KINOMEscan analysis relative to control
[7] = molecular target: T4, Serine/threonine-protein kinase Nek3 (Homo sapiens) (UniProt P51956); assay: Inhibition of NEK3 (unknown origin) assessed as residual activity at 100 nM by KINOMEscan analysis relative to control
T4 sequence (whole entry): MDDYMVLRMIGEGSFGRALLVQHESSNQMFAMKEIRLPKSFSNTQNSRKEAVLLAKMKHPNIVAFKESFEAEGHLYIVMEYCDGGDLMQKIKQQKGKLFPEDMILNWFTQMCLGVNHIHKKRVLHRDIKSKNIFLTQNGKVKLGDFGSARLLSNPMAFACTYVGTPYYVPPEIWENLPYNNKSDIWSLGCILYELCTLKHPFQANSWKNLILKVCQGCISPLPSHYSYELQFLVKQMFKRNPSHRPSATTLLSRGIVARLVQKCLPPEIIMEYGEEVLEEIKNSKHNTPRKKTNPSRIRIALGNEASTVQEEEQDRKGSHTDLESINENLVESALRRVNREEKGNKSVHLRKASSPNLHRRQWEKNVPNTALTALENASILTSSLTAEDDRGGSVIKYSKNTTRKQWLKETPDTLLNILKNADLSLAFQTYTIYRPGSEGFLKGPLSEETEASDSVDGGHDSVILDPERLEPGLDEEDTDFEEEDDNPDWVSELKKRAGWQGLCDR

[8] = molecular target: Cyclin-dependent kinase-like 1 (Homo sapiens) (UniProt Q00532); assay: Inhibition of CDKL1 (unknown origin) assessed as residual activity at 100 nM by KINOMEscan analysis relative to control

Row | SMILES | Activity [1] | Activity [2] | Activity [3] | Activity [4] | Activity [5] | IC50 (GTPase KRas/RAF1) | Activity [6] | Activity [7] | Activity [8]
1 | COc1cc2nc(C)nc(N[C@H](C)c3cccc(-c4cn[nH]c4)c3)c2cc1OC | 86% |  |  |  |  |  |  |  | 
2 | COc1cc2ncnc(N[C@H](C)c3cccc4ccccc34)c2cc1OC |  | 100% | 96% | 100% | 87% | > 20 µM | 99% | 97% | 70%
